Nine compounds from patent publication US10669637B2, “Purine-based corrosion inhibitors” (Ecolab USA Inc., priority 2015, dated 2020) can be followed below.

The nature of this experiment: Copper corrosion rate by linear polarization resistance. As to conditions: for No FRC Corrosion Rate (mpy) / 1 ppm FRC Corrosion Rate (mpy): copper coupons, 5 ppm inhibitor, pH 7.0, 45° C.; for No FRC Corrosion Rate (mpy): absence of bleach, average over 20 to 24 hour period; for 1 ppm FRC Corrosion Rate (mpy): bleach maintained at 1 ppm FRC. As to the method:
In addition, the corrosion rate of copper in the presence of benzimidazole, tolyltriazole, imidazole, pyrimidine, 6,6-dimethyladenine, and 6-methylpurine was determined using linear polarization resistance measurements. […] For each experiment, cylindrical copper coupons pre-polished using SIC 600 paper and fitted on a Pine rotator were immersed in a solution of corrosion inhibitor. […] The pH of the test water was maintained at 7.0 using carbon dioxide, and the water temperature was maintained at 45° C. throughout the experiment. […] Density: 8.92 g/cm^3; Copper Eq. Weight: 63.54 g; and Initial delay: 30 seconds. Next, the copper samples were exposed to a 25% bleach solution. […] The Rp in the absence and presence of bleach was collected and analyzed, and the average corrosion rate was calculated and recorded in Table 1. Corrosion rates were calculated in mils per year (mpy).

In the case of `CN(C)c1ncnc2nc[nH]c12` [Compound 10, 6,6-Dimethyladenine], the “No FRC Corrosion Rate (mpy)” value turned out to be 0.68 mpy and the “1 ppm FRC Corrosion Rate (mpy)” value is recorded as 0.66 mpy.
Tolyltriazole [Compound 7]: the “No FRC Corrosion Rate (mpy)” value is reported as 0.0214 mpy and the “1 ppm FRC Corrosion Rate (mpy)” value is reported as 0.0995 mpy.
As for `Cc1ncnc2nc[nH]c12` [Compound 11, 6-Methylpurine], the “No FRC Corrosion Rate (mpy)” value amounted to 0.74 mpy and the “1 ppm FRC Corrosion Rate (mpy)” value worked out at 0.44 mpy.
Consider `c1cncnc1` [Compound 9, Pyrimidine], for which the “No FRC Corrosion Rate (mpy)” value is reported as 1.2 mpy and the “1 ppm FRC Corrosion Rate (mpy)” value is recorded as 0.79 mpy.
With `Clc1ncnc2nc[nH]c12` [Compound 3, 6-Chloropurine], the “No FRC Corrosion Rate (mpy)” value is 0.04 mpy and the “1 ppm FRC Corrosion Rate (mpy)” value is 0.16 mpy.
Consider `Nc1ncnc2nc[nH]c12` [Compound 5, Adenine], for which the “No FRC Corrosion Rate (mpy)” value is on record as 0.1665 mpy and the “1 ppm FRC Corrosion Rate (mpy)” value was found to be 0.3571 mpy. For the same compound, the “change of copper corrosion rate upon the addition of bleach” value (1 ppm FRC) is reported as “observed increase”. Moreover, for the setting “listed as adenine”, the “No FRC Corrosion Rate (mpy)” value was 0.16 mpy and the “1 ppm FRC Corrosion Rate (mpy)” value is recorded as 0.35 mpy.
On to `Oc1ncnc2nc[nH]c12` [Compound 4, Hypoxanthine], for which the “No FRC Corrosion Rate (mpy)” value turned out to be 0.1036 mpy and the “1 ppm FRC Corrosion Rate (mpy)” value is recorded as 0.1684 mpy.
With `c1ccc2[nH]cnc2c1` [Compound 6, Benzimidazole], the “No FRC Corrosion Rate (mpy)” value was 0.0890 mpy and the “1 ppm FRC Corrosion Rate (mpy)” value was 0.9594 mpy.
Consider `c1c[nH]cn1` [Compound 8, Imidazole], for which the “No FRC Corrosion Rate (mpy)” value is listed as 0.69 mpy and the “1 ppm FRC Corrosion Rate (mpy)” value amounted to 1.1 mpy.
